Test results published in patent US12473284B2, “Small molecule inhibitors of ULK1” (Memorial Sloan Kettering Cancer Center, priority 2019, dated 2025).

The molecules below were run against protein kinase CDK7 (Homo sapiens (Human), UniProt P50613) (assay: Inhibition of protein kinase CDK7). Conditions: not given.
Type: biochemical

Sequence of protein kinase CDK7 (P50613 whole entry): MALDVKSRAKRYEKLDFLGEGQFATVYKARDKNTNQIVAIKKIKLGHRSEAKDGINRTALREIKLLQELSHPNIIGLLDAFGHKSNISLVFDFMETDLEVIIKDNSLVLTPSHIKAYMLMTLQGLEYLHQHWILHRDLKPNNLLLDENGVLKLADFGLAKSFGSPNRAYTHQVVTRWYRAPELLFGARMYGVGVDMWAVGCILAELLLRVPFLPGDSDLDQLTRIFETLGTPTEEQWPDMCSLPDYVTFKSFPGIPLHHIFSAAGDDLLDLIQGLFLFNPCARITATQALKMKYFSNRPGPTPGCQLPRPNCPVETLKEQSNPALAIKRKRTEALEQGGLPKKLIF
Sequence of protein kinase CDK7 (P51946 whole entry partner): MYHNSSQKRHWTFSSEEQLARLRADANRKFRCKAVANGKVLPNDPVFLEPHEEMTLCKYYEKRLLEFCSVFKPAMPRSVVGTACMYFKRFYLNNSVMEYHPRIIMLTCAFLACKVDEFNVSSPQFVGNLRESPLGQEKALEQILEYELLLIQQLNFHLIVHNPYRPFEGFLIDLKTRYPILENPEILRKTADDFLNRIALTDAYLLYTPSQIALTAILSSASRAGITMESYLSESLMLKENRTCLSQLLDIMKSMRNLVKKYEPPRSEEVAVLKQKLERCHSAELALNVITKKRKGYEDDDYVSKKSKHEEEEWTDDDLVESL
Sequence of protein kinase CDK7 (P51948 whole entry partner): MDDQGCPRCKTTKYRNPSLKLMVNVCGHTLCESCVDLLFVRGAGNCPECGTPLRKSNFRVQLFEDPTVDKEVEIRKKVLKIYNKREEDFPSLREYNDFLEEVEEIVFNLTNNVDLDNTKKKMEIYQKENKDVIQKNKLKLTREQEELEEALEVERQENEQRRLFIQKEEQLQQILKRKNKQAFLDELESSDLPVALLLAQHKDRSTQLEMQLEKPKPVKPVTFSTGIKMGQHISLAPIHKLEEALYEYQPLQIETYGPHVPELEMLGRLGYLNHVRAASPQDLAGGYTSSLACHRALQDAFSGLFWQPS

Compound	inhibition of protein kinase CDK7 (potency)
CC(N)C1CCC(C(=O)Nc2ccnc3[nH]c(-c4ccsc4)cc23)CC1 (stereo not shown) [MSK-A176]	low nM potency
CC(N)C1CCC(C(=O)Cc2ccnc3[nH]c(-c4ccc(F)cc4)cc23)CC1 (stereo not shown) [MSK-A184]	low nM potency
CC(N)C1CCC(C(=O)Cc2ccnc3[nH]c(-c4ccc(C#N)cc4)cc23)CC1 (stereo not shown) [MSK-A189]	low nM potency
CC(N)C1CCC(C(=O)Cc2ccnc3[nH]c(-c4cccc(F)c4)cc23)CC1 (stereo not shown) [MSK-A191]	low nM potency

What follows are molecules tested against ULK1/Atg13 kinase complex (Homo sapiens (Human), UniProt O75385) (assay: In vitro kinase assay (Kinase-Glo Plus luminescence, MBP 1-20 peptide substrate)). Conditions: recombinant His-tagged ULK1/Atg13, 75 min at room temperature; salt form as in Table 1.
Sequence of ULK1/Atg13 kinase complex (O75385 whole entry): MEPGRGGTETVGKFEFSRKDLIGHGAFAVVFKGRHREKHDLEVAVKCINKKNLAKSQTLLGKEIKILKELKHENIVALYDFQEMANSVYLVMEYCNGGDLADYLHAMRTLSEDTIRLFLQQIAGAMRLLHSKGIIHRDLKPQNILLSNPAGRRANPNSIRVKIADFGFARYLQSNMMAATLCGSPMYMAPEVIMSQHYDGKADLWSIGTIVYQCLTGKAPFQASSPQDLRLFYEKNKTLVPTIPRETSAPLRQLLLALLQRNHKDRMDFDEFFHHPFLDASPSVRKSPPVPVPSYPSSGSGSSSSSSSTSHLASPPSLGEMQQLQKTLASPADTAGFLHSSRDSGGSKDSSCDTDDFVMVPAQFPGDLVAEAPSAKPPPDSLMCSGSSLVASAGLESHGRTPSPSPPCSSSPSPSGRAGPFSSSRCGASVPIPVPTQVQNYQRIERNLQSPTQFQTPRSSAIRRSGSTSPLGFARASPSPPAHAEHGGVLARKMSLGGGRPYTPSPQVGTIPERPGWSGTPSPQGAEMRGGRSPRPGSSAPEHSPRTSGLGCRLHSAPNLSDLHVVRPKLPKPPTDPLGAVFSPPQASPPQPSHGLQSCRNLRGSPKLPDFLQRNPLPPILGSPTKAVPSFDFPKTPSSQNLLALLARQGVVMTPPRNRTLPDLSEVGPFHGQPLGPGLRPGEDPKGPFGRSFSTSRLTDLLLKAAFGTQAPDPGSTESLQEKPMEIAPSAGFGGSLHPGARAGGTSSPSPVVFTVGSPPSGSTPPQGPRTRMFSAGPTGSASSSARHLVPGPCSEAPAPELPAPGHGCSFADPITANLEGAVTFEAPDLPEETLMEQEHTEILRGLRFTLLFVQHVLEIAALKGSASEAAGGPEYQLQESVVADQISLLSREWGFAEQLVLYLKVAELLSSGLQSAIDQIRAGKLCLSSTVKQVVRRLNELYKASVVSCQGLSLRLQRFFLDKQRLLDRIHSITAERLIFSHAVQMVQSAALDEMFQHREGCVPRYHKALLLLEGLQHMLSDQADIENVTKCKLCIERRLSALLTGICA
Sequence of ULK1/Atg13 kinase complex (O75143 whole entry partner): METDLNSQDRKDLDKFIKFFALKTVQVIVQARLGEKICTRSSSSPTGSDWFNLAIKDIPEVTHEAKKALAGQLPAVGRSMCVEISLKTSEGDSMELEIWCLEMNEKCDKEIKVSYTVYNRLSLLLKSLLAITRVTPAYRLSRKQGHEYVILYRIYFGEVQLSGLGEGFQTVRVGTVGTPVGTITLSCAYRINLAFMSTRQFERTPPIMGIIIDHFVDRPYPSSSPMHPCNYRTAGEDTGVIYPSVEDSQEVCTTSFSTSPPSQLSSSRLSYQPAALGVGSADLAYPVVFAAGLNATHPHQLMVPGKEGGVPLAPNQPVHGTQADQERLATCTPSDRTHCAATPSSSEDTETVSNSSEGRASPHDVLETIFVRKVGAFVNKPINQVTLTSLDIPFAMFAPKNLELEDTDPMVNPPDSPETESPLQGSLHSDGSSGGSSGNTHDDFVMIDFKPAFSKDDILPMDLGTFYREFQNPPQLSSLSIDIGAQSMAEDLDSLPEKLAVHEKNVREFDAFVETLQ
Type: biochemical
Procedure: In vitro kinase assays were performed as described below:
Recombinant His-tagged ULK1/Atg13 kinase complex was expressed in […] insect cells, and affinity-purified by Ni-NTA beads, aliquoted and stored at −80° C.
Compounds were dissolved in DMSO to make 10 mM stock solution, aliquoted and stored at −80° C.
1× kinase buffer was prepared: 20 mM Tris-HCl, pH7.5, 100 mM NaCl, 5 mM MgCl2, 0.5 mg/ml BSA, 5 mM DTT, 0.1% Tween-20.
For compound screening experiment, 1 μl of the 10 mM compound stock solution was added using P2.5 pipette into 99 μl 1×kinase buffer to make 100 μM working solution.
For compound titration experiment, 100 μM compound solution was further diluted (with 1×kinase buffer containing 1% DMSO) in a series manner.
30 mM MBP (Myelin basic protein) 1-20 peptide (sequence: […]; SEQ ID NO: 1) was prepared in 1× kinase buffer.
500 μM ATP was prepared in 1× kinase buffer.
Pre-incubation reactions were set up as shown in the Table below and pre-incubated for 10 min at room temperature.
4 μl of 500 μM ATP was added to the pre-incubation reaction (thus the final reaction volume is 20 μl) and incubated for 75 min at room temperature.
20 μl Kinase-Glo Plus (Promega) was added to the reaction (warmed to RT), mixed well and incubated at room temperature for 15 min.
20 μl reaction was pipetted into each well of a white 384-well plate.
the 384-well plate was subjected to brief centrifugation, and luminescence was read in a plate reader.
Calculated inhibition (%) was calculated as follows: […]

Compound	IC50 [nM]
CC(N)C1CCC(C(=O)Nc2ccnc3[nH]c(-c4ccsc4)cc23)CC1 (single isomer, unassigned) [MSK-A176-peak 1, (1r,4r)-4-(1-aminoethyl)-N-(2-(thiophen-3-yl)-1H-pyrrolo[2,3-b]pyridin-4-yl)cyclohexanecarboxamide]	56.2
CC(N)C1CCC(C(=O)Nc2ccnc3[nH]c(-c4ccsc4)cc23)CC1 (single isomer, unassigned) [MSK-A176-peak 2, (1r,4r)-4-(1-aminoethyl)-N-(2-(thiophen-3-yl)-1H-pyrrolo[2,3-b]pyridin-4-yl)cyclohexanecarboxamide]	23.6
CC(N)C1CCC(C(=O)Nc2ccnc3[nH]c(-c4ccc(F)cc4)cc23)CC1 (single isomer, unassigned) [MSK-A184_peak 1, (1r,4r)-4-(1-aminoethyl)-N-(2-(4-fluorophenyl)-1H-pyrrolo[2,3-b]pyridin-4-yl)cyclohexanecarboxamide]	15.5
CC(N)C1CCC(C(=O)Nc2ccnc3[nH]c(-c4ccc(F)cc4)cc23)CC1 (single isomer, unassigned) [MSK-A184_peak 2, (1r,4r)-4-(1-aminoethyl)-N-(2-(4-fluorophenyl)-1H-pyrrolo[2,3-b]pyridin-4-yl)cyclohexanecarboxamide]	38.9
CC(N)C1CCC(C(=O)Nc2ccnc3[nH]c(-c4cccc(F)c4)cc23)CC1 (single isomer, unassigned) [MSK-A191_peak 1, (1r,4r)-4-(1-aminoethyl)-N-(2-(3-fluorophenyl)-1H-pyrrolo[2,3-b]pyridin-4-yl)cyclohexanecarboxamide]	40.8
CC(N)C1CCC(C(=O)Nc2ccnc3[nH]c(-c4cccc(F)c4)cc23)CC1 (single isomer, unassigned) [MSK-A191_peak 2, (1r,4r)-4-(1-aminoethyl)-N-(2-(3-fluorophenyl)-1H-pyrrolo[2,3-b]pyridin-4-yl)cyclohexanecarboxamide]	59.1
C[C@@H](N)C1CCC(C(=O)Nc2ccnc3occc23)CC1 (stereo partly shown) [MSK-A091, (1r,4r)-4-(1-aminoethyl)-N-(furo[2,3-b]pyridin-4-yl)cyclohexanecarboxamide]	2200
CC(N)C1CCC(C(=O)Nc2ccnc3[nH]c(-c4ncc[nH]4)cc23)CC1 (stereo not shown) [MSK-A157, (1r,4r)-N-(2-(1H-imidazol-2-yl)-1H-pyrrolo[2,3-b]pyridin-4-yl)-4-(1-aminoethyl)cyclohexanecarboxamide]	73
C[C@@H](N)C1CCC(C(=O)Nc2ccnc3[nH]c(-c4ccccc4)cc23)CC1 (stereo partly shown) [MSK-A170, (1r,4r)-4-(1-aminoethyl)-N-(2-phenyl-1H-pyrrolo[2,3-b]pyridin-4-yl)cyclohexanecarboxamide]	18
CC(N)C1CCC(C(=O)Nc2ccnc3[nH]c(-c4nccn4C)cc23)CC1 (stereo not shown) [MSK-A171, (1r,4r)-4-(1-aminoethyl)-N-(2-(1-methyl-1H-imidazol-2-yl)-1H-pyrrolo[2,3-b]pyridin-4-yl)cyclohexanecarboxamide]	1450
C[C@@H](N)C1CCC(C(=O)Nc2ccnc3[nH]c(-c4ccccn4)cc23)CC1 (stereo partly shown) [MSK-A172, (1r,4r)-4-(1-aminoethyl)-N-(2-(pyridin-2-yl)-1H-pyrrolo [2,3-b]pyridin-4-yl)cyclohexanecarboxamide]	110
CC(N)C1CCC(C(=O)Nc2ccnc3[nH]c(-n4cccn4)cc23)CC1 (stereo not shown) [MSK-A173, (1r,4r)-N-(2-(1H-pyrazol-1-yl)-1H-pyrrolo[2,3-b]pyridin-4-yl)-4-(1-aminoethyl)cyclohexanecarboxamide]	630
CC(N)C1CCC(C(=O)Nc2ccnc3[nH]c(-c4ccsc4)cc23)CC1 (stereo not shown) [MSK-A176]	5
CC(N)C1CCC(C(=O)Nc2ccnc3[nH]c(-c4cccs4)cc23)CC1 (stereo not shown) [MSK-A177]	54
CC(N)C1CCC(C(=O)Nc2ccnc3[nH]c(-c4nccs4)cc23)CC1 (stereo not shown) [MSK-A178]	47
CC(N)C1CCC(C(=O)Nc2ccnc3[nH]c(-c4ncccn4)cc23)CC1 (stereo not shown) [MSK-A180]	2380
CC(N)C1CCC(C(=O)Nc2ccnc3[nH]c(-n4ccnc4)cc23)CC1 (stereo not shown) [MSK-A181, (1r,4r)-N-(2-(1H-imidazol-1-yl)-1H-pyrrolo[2,3-b]pyridin-4-yl)-4-(1-aminoethyl)cyclohexanecarboxamide]	515
COC(=O)[C@@H](N)[C@H]1CC[C@H](C(=O)Nc2ccnc3[nH]c(-c4ccccc4)cc23)CC1 [MSK-A182, (S)-methyl 2-amino-2-((1r,4S)-4-((2-phenyl-1H-pyrrolo[2,3-b]pyridin-4-yl)carbamoyl)cyclo-hexyl)acetate]	22.9
COC(=O)[C@H](N)[C@H]1CC[C@H](C(=O)Nc2ccnc3[nH]c(-c4ccccc4)cc23)CC1 [MSK-A183, (R)-methyl 2-amino-2-((1r,4R)-4-((2-phenyl-1H-pyrrolo[2,3-b]pyridin-4-yl)carbamoyl)cyclo-hexyl)acetate]	185
CC(N)C1CCC(C(=O)Cc2ccnc3[nH]c(-c4ccc(F)cc4)cc23)CC1 (stereo not shown) [MSK-A184]	18.9
COc1ccc(-c2cc3c(CC(=O)C4CCC(C(C)N)CC4)ccnc3[nH]2)cc1 (stereo not shown) [MSK-A188]	19.4
CC(N)C1CCC(C(=O)Cc2ccnc3[nH]c(-c4ccc(C#N)cc4)cc23)CC1 (stereo not shown) [MSK-A189]	18.3
CC(N)C1CCC(C(=O)Nc2ccnc3[nH]c(-c4ccc5ccccc5c4)cc23)CC1 (stereo not shown) [MSK-A190]	23.8
CC(N)C1CCC(C(=O)Cc2ccnc3[nH]c(-c4cccc(F)c4)cc23)CC1 (stereo not shown) [MSK-A191]	20.6
Cc1cccc(-c2cc3c(CC(=O)C4CCC(C(C)N)CC4)ccnc3[nH]2)c1 (stereo not shown) [MSK-A192]	20.2
CC(N)C1CCC(C(=O)Cc2ccnc3[nH]c(-c4cccc(C5CC5)c4)cc23)CC1 (stereo not shown) [MSK-A193]	26.3
CC(N)C1CCC(C(=O)Cc2ccnc3[nH]c(-c4cccc(C(F)(F)F)c4)cc23)CC1 (stereo not shown) [MSK-A194]	29.2
CC(N)C1CCC(C(=O)Nc2ccnc3[nH]c(-c4cscn4)cc23)CC1 (stereo not shown) [MSK-A199]	109
CC(N)C1CCC(C(=O)Nc2ccnc3[nH]c(-c4ncco4)cc23)CC1 (stereo not shown) [MSK-A202]	156

Each molecule was assayed on MiaCaPa-2 cancer cells (assay: MiaCaPa-2 pancreatic ductal adenocarcinoma (PDAC) cell line xenograft mice model). Conditions: MSK-A170-PEAK2 10 mg/kg + trametinib 0.5 mg/kg, i.p., 6 days a week, 17 days, female athymic nude mice.
Type: in vivo
Procedure: FIG. 1 illustrates the final tumor weights for four groups on mice in a MiaCaPa-2 cell line xenograft mouse model, where “Control” group mice were treated 6 days a week, i.p., for 17 days with dosing vehicle; “ULK1i” group mice were treated 6 days a week, i.p., for 17 days with a compound of the present technology, 10 mg/kg; “MEKi” group mice were treated 6 days a week, i.p., for 17 days with MEK1 inhibitor trametinib, 0.5 mg/kg; “ULK1i+MEKi” group mice were treated 6 days a week, i.p., for 17 days with a combination of the compound of the present technology (10 mg/kg) and trametinib (0.5 mg/kg), according to the working examples.
FIG. 2 provides the tumor volume over time for each group of the xenograft mouse model study that provided the data of FIG. 1, according to the working examples.
Female athymic nude (Foxn1^nu) mice were implanted with 2×10^6 MiaCaPa-2 cancer cells per animal subcutaneously at the right flank. […] The tumor volume was measured on 1, 3, 5, 7, 9, 11, 13, 15, and 17. […]

Compound	tumor weight / tumor volume, combination with trametinib versus trametinib alone
C[C@@H](N)C1CCC(C(=O)Nc2ccnc3[nH]c(-c4ccccc4)cc23)CC1 (single isomer, unassigned) [MSK-A170-PEAK2]	significantly improved results
